± gives the expanded uncertainty stated by the source.
Test: wn = mass fraction of the nth substance listed
Details: 101.3 kPa, Liquid, w1 = 0.3

mass density (293.15 K) [kg/m3] | viscosity (293.15 K) [mPa·s] | mass density (298.15 K) [kg/m3] | viscosity (298.15 K) [mPa·s] | mass density (303.15 K) [kg/m3] | viscosity (303.15 K) [mPa·s] | mass density (308.15 K) [kg/m3] | viscosity (308.15 K) [mPa·s] | mass density (313.15 K) [kg/m3] | viscosity (313.15 K) [mPa·s] | mass density (318.15 K) [kg/m3] | viscosity (318.15 K) [mPa·s] | mass density (323.15 K) [kg/m3] | viscosity (323.15 K) [mPa·s] | SMILES
999.85 ± 1.1 | 4.89 ± 0.43 | 997.41 ± 1.1 | 3.79 ± 0.34 | 994.62 ± 1.1 | 3.21 ± 0.29 | 991.22 ± 1.1 | 2.8 ± 0.25 | 988.72 ± 1.2 | 2.24 ± 0.21 | 986.24 ± 1.2 | 1.92 ± 0.18 | 983.13 ± 1.3 | 1.58 ± 0.15 | CC(C)(N)CO [2-amino-2-methylpropan-1-ol] + O
1042.7 ± 1.1 | 4.22 ± 0.37 | 1037.4 ± 1.1 | 3.26 ± 0.3 | 1033.2 ± 1.1 | 2.57 ± 0.23 | 1029.1 ± 1.2 | 2.51 ± 0.23 | 1026.4 ± 1.2 | 1.97 ± 0.18 | 1022.7 ± 1.3 | 1.72 ± 0.16 | 1019.3 ± 1.3 | 1.41 ± 0.13 | OCCNCCO [diethanolamine] + O
1015.3 ± 1.1 | 2.63 ± 0.24 | 1012.1 ± 1.1 | 2.2 ± 0.2 | 1009.2 ± 1.1 | 2.1 ± 0.19 | 1004.9 ± 1.1 | 1.85 ± 0.17 | 1003.2 ± 1.2 | 1.6 ± 0.15 | 1001 ± 1.2 | 1.5 ± 0.14 | 997.76 ± 1.3 | 1.29 ± 0.12 | NCCO [2-aminoethan-1-ol] + O

SMILES | mass density (293.15 K) [kg/m3] | viscosity (293.15 K) [mPa·s] | mass density (298.15 K) [kg/m3] | viscosity (298.15 K) [mPa·s] | mass density (303.15 K) [kg/m3] | viscosity (303.15 K) [mPa·s] | mass density (308.15 K) [kg/m3] | viscosity (308.15 K) [mPa·s] | mass density (313.15 K) [kg/m3] | viscosity (313.15 K) [mPa·s] | mass density (318.15 K) [kg/m3] | viscosity (318.15 K) [mPa·s] | mass density (323.15 K) [kg/m3] | viscosity (323.15 K) [mPa·s]
CN(CCO)CCO [N-methyldiethanolamine] + O | 1032.2 ± 1.1 | 3.46 ± 0.31 | 1027.5 ± 1.1 | 3.02 ± 0.27 | 1023.1 ± 1.1 | 2.68 ± 0.24 | 1019.9 ± 1.2 | 2.27 ± 0.21 | 1018.2 ± 1.2 | 1.92 ± 0.18 | 1014.2 ± 1.3 | 1.72 ± 0.16 | 1011.2 ± 1.3 | 1.49 ± 0.14

Reference: the NIST ThermoML archive (doi:10.1021/je020206a)
